Test results: patent US20230107538A1, “CYCLOALKYL-CONTAINING CARBOXYLIC ACIDS AND USES THEREOF” (LIMINAL BIOSCIENCES LIMITED, priority 2019, published 2023)

Tests used:
[1] = target: T1, human PPARγ ligand binding domain (LBD) (Homo sapiens, UniProt P37231); experiment: Cell-based GAL4 PPAR transactivation assay in HEK293 cells, PPARγ; settings: 24 h
T1 construct: PPARγ (S176-Y477); host or cells: HEK293
T1 sequence (P37231 176-477 isoform P37231-2): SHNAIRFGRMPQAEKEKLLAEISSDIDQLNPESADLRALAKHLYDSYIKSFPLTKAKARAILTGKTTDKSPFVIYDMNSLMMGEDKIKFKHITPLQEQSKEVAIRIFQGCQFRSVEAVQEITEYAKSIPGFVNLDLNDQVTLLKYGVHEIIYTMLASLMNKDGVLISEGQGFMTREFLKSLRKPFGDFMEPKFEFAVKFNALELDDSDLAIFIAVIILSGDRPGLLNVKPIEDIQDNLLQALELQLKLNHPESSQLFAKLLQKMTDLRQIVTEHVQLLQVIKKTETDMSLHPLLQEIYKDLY
Protocol: (§1) The peroxisome proliferator-activated receptors (PPARs), PPARα, PPARδ, and PPARγ are ligand-dependent transcription factors that control expression of several key metabolism-associated genes. The transcriptional activity of representative compounds of formula I to these receptors was assessed using a cell-based GAL4 transactivation assay in HEK293 cells transfected with either PPARα, PPARδ, or PPARγ ligand binding domain (LBD), and was compared to that of the full control agonists GW7647 (PPARα), GW0742 (PPARδ), and rosiglitazone (PPARγ).
(§2) Plasmids: The hinge region and ligand binding domain (LBD) from human PPARα (S167-Y468), PPARδ (S139-Y440) and PPARγ (S176-Y477) were PCR-amplified from a PPARα cDNA clone (cDNA Resource Center, http://www.cdna.org) or from PPARδ1 and PPARγ1 LBD gBlocks™ gene fragments (Integrated DNA Technologies). The PPAR LBD PCR products were inserted in frame with the GAL4 DNA binding domain in the pFN26A(BIND)-hRlu-neo Flexi vector (Promega) at SgfI and PmeI sites to generate GAL4-PPAR-Rluc.
(§3) Cell-based PPAR transactivation assay. HEK293 cells were co-transfected with pGL4.35[luc2P/9XGAL4UAS/Hygro] (Promega) and GAL4-PPAR-Rluc plasmids, and after 24 h of incubation were treated with compounds for 24 h. Luciferase activity was determined with the Dual Glo™ luciferase assay (Promega). Firefly luminescence was normalized to the constitutively expressed Renilla luminescence, and results expressed as fold induction of vehicle control or percentage of reference agonist maximal activity.

[2] = target: T2, human PPARδ ligand binding domain (LBD) (Homo sapiens, UniProt Q03181); experiment: Cell-based GAL4 PPAR transactivation assay in HEK293 cells, PPARδ; settings: 24 h
T2 construct: PPARδ (S139-Y440); host or cells: HEK293
T2 sequence (Q03181 139-441 limits assumed): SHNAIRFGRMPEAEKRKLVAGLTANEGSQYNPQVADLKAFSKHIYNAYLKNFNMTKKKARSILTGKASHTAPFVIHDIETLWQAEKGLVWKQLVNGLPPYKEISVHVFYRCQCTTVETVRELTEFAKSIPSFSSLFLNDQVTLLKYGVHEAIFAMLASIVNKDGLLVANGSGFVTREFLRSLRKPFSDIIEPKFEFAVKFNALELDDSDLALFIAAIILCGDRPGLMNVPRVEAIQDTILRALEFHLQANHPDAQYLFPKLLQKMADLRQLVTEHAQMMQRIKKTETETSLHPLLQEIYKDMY
Protocol: as §1, §2, §3

[3] = target: T3, human PPARα ligand binding domain (LBD) (Homo sapiens, UniProt Q07869); experiment: Cell-based GAL4 PPAR transactivation assay in HEK293 cells, PPARα; settings: 24 h
T3 construct: human PPARα (S167-Y468); expressed in transfected cells; host or cells: HEK293
T3 sequence (Q07869 167-468): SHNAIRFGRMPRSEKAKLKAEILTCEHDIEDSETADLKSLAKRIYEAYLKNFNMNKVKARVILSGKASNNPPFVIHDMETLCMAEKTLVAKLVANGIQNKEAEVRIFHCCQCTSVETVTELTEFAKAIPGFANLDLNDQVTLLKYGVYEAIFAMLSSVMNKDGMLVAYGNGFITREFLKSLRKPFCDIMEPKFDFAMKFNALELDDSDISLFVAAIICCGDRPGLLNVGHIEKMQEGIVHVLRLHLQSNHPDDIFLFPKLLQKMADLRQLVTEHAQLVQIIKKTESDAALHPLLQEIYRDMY
Protocol: as §1, §2, §3

Row | SMILES | PPARγ (GAL4 reporter) % efficacity relative to rosiglitazone [1] | PPARδ (GAL4 reporter) % efficacity relative to GW0742 [2] | PPARα (GAL4 reporter) % efficacity relative to GW7647 [3] | melting point
1 | CCCCCCC1CC1C(=O)C(=O)[O-].[Na+] (stereo not shown) | 2% | −3% | 34% | –
2 | [2H]C1([2H])C(CCCCCC)C1CC(=O)[O-].[Na+] (stereo not shown) | 3% | 2% | 20% | –
3 | CC1(C)CC1CCCCC/C=C/C(=O)[O-].[Na+] (stereo not shown) | 1% | 30% | 10% | –
4 | CCCCCCCC1CC1C(=O)[O-].[Na+] (stereo not shown) | 16% | 4% | 90% | –
5 | CC1(C)CC1CCCCC1CC1C(=O)[O-].[Na+] (stereo not shown) | 5% | 5% | 43% | –

Further lines, results first:

Row | PPARγ (GAL4 reporter) % efficacity relative to rosiglitazone [1] | PPARδ (GAL4 reporter) % efficacity relative to GW0742 [2] | PPARα (GAL4 reporter) % efficacity relative to GW7647 [3] | melting point | SMILES
6 | – | – | – | 108 to 111 °C | CCCCCCC1C(CC(=O)[O-])C1(Br)Br.[Na+] (stereo not shown) [Compound II, Sodium 2-(2,2-dibromo-3-hexylcyclopropyl)acetate]
7 | 8% | 2% | 91% | – | CCCCCCC1C(CC(=O)[O-])C1(C)C.[Na+] (stereo not shown) [drawing 322]
8 | 4% | −6% | 33% | – | CCCCCCC1C(CC(=O)[O-])C1(C)C.[Na+] (stereo not shown) [drawing 323]
